Measured values: patent US7132458B2, “Oxidized carotenoid fractions and ketoaldehyde useful as cell-differentiation inducers, cytostatic agents, and anti-tumor agents” (Chemaphor Inc., priority 1994, dated 2006)

Experiments:
HCT116 = test: Cytostatic effect (Hoechst 33258 DNA fluorescence, 3 days); assay type: cell-based, human; set-up: key: +: activity higher; 0: similar to; −: less than the activity of β-Car^OX; details: ranked relative to β-Car^OX across six concentrations 2.5-45 μM
Description: (§1) Fractions were tested for cytostatic properties and ability to induce differentiation. The results were compared with those obtained for β-Car^OX, which served as a reference indicating whether or not fractionation was leading to fractions with enhanced activity. Retinoic acid and/or β-carotene were used as controls in some of the cell lines tested in order to differentiate their effects from that of β-Car^OX. All of the samples were tested in identical ‘by weight’ concentrations. Comparisons have been done on a pseudo molarity scale by dividing the weight of sample used by the molecular weight of β-carotene (537 Da). Fractions were tested in human colon carcinoma (HCT116), human neuroblastoma (IMR32), human acute promyelocytic leukemia (NB4), human chronic myelogenous leukemia (K562), and mouse keratinocytes (Balb/c/MK).
(§2) Fractions have been ranked relative to β-Car^OX by dividing each growth inhibition value at each sample concentration by the corresponding β-Car^OX value and determining qualitatively by inspection the trends across the six sample concentrations. Activities of fractions are expressed as “+”, “0”, and “−”, indicating activity higher, similar to, and less than the activity of β-Car^OX, respectively.

IMR32 [1] = test: as above; assay type: cell-based, human; set-up: key: +: activity higher; 0: similar to; −: less than the activity of β-Car^OX; details: ranked relative to β-Car^OX across six concentrations 2.5-45 μM
Description: as §1, §2

K562 = test: as above; assay type: cell-based, human; set-up: key: +: activity higher; 0: similar to; −: less than the activity of β-Car^OX; details: ranked relative to β-Car^OX across six concentrations 2.5-22.5 μM
Description: as §1, §2

NB4 [2] = test: as above; assay type: cell-based, human; set-up: key: +: activity higher; 0: similar to; −: less than the activity of β-Car^OX; details: ranked relative to β-Car^OX across six concentrations 2.5-22.5 μM
Description: as §1, §2

Balb/c/MK keratinocytes = test: Expression of cytokeratins in keratinocytes; assay type: cell-based, mouse; details: Ca^++ 1.8 mM, Retinoic Acid 3 μM, β-Car^OX 30 μM; for IA, intensity of expression per cell, Cytokeratins 1 and 10: control 4.4; for IA, intensity of expression per cell, panel (CAMON) of Cytokeratins: control 60.7; for A, percentage of immunopositive cells expressing Cytokeratins 1 and 10: control 90.3; for A, percentage of immunopositive cells expressing a panel (CAMON) of Cytokeratins: control 93.7
Source text: Qualitative data were provided in the first phase of research for the differentiation-inducing effect of β-Car^OX upon the mouse Balb/c/MK keratinocyte cell line.
Cytokeratins 1 and 10 are high molecular weight proteins which are increasingly expressed with the progression of the differentiation program. […] Cells cultured in low calcium media remain proliferative. […] The apparently smaller effect of β-Car^OX compared to retinoic acid is due not to lower potency but to a delayed action and similar results are obtained using a panel of other cytokeratins (Cytokeratin coctail from CAMON containing cytokeratins 1–8, 10, 13, 14, 15, 16, 19).

NB4 cells = test: Cell cycling, flow cytometry of intracellular DNA content; assay type: cell-based, human; details: synchronized populations, controls 22 hours
Description: There is no G1 block. This effect is due to a lengthening of the duration of the cell cycle. […] The data were acquired using flow cytometry analysis of the individual intracellular DNA content of cells from synchronized populations. Sampling was done every 5 hours over a period of 48 hours.

IMR32 [3] = test: Differentiating properties of combinations of β-Car^OX and retinoic acid; assay type: cell-based, human; details: Retinoic Acid L 1–2.5 μM alone
Source text: (§3) Given the cell differentiation-inducing properties of β-Car^OX and some of its fractions, it is instructive not only to compare the effects obtained with those of the better known all-trans retinoic acid, which is recognized as being able to regulate differentiation capacities of several mammalian cell types, but to determine also the effect upon cells when β-Car^OX and retinoic acid are used together. Table 4 presents qualitative data illustrating the results obtained with various combinations of β-Car^OX and retinoic acid in both the NB4 and IMR32 cell lines.
(§4) When an equipotent concentration of β-Car^OX is combined with retinoic acid, their differentiation-inducing effects cancel out. However, when the concentration of either one of them is increased relative to the other, differentiation-induction is restored.

NB4 [4] = test: as above; assay type: cell-based, human; details: Retinoic Acid L 0.1–1 μM alone
Source text: as §3, §4

NB4 cell line = test: Expression of differentiation markers CD33, CD11b, CD15 at five days; assay type: cell-based, human; details: combined treatments 1 μM RA and 7.5 μM β-Car^OX or fraction
Description: The cell differentiation-inducing effects of the fractions were determined qualitatively by observation of morphological changes in cell lines and quantitatively by measuring the expression of characteristic protein markers using monoclonal antibodies and flow cytometry. […] Many differentiation markers are expressed transiently during the differentiation program. In the NB4 cell line, protein CD33 is associated with early stages of differentiation, followed by protein CD11b, an intermediate marker, and eventually by protein CD15, an advanced differentiation marker. Enhanced differentiation therefore will be characterized by a decrease in the expression and intensity of the CD33 marker and an increase in expression and intensity of the CD15 marker.

IMR32 cell line = test: Expression of NF and GFAP markers; assay type: cell-based, human; details: β-Car^OX 0 μM
Source text: Expression of glial fibrillary acidic protein, GFAP, is a useful marker indicating differentiation towards glial cells.

DA-3 cell line = test: Viability (MTT test), melphalan with β-Car^OX; assay type: cell-based; details: Mus musculus
Source text: The benefit of the cellular GSH-lowering effect is illustrated by what happens to the viability of DA-3 cells, using the MTT test, treated with both β-Car^OX and melphalan, a classical anticancer agent.

Structure (SMILES): CC1=C(/C=C/C(C)=C/C=C/C(C)=C/C=C/C=C(C)/C=C/C=C(C)/C=C/C2=C(C)CCCC2(C)C)C(C)(C)CCC1 [β-Carotene]
- Cytostatic Effect On Cell Lines, HCT116 (HCT116): −
- Cytostatic Effect On Cell Lines, IMR32 (IMR32 [1]): 0
- Cytostatic Effect On Cell Lines, K562 (K562): −
- Cytostatic Effect On Cell Lines, NB4 (NB4 [2]): −

Structure (SMILES): [Ca+2] [Ca^++]
- IA, intensity of expression per cell, Cytokeratins 1 and 10 (Balb/c/MK keratinocytes): 13.8 arbitrary units
- IA, intensity of expression per cell, panel (CAMON) of Cytokeratins (Balb/c/MK keratinocytes): 87.2 arbitrary units
- A, percentage of immunopositive cells expressing Cytokeratins 1 and 10 (Balb/c/MK keratinocytes): 96.5
- A, percentage of immunopositive cells expressing a panel (CAMON) of Cytokeratins (Balb/c/MK keratinocytes): 97.6

Structure (SMILES): CC1=C(/C=C/C(C)=C/C=C/C(C)=C/C(=O)O)C(C)(C)CCC1 [All trans Retinoic Acid]
- Cytostatic Effect On Cell Lines, HCT116 (HCT116): −
- Cytostatic Effect On Cell Lines, IMR32 (IMR32 [1]): +
- Cytostatic Effect On Cell Lines, K562 (K562): 0
- Cytostatic Effect On Cell Lines, NB4 (NB4 [2]): 0
- IA, intensity of expression per cell, Cytokeratins 1 and 10 (Balb/c/MK keratinocytes): 15.4 arbitrary units
- IA, intensity of expression per cell, panel (CAMON) of Cytokeratins (Balb/c/MK keratinocytes): 129.8 arbitrary units
- A, percentage of immunopositive cells expressing Cytokeratins 1 and 10 (Balb/c/MK keratinocytes): 94.5
- A, percentage of immunopositive cells expressing a panel (CAMON) of Cytokeratins (Balb/c/MK keratinocytes): 94.3
- duration of the cell cycle (NB4 cells): 18 h
- Differentiation (IMR32 [3]): yes
- Differentiation (NB4 [4]): yes
- CD11b A, percentage of immunopositive cells (NB4 cell line): 71.9
- CD11b IA, average intensity of marker expression per cell (NB4 cell line): 2.6 arbitrary units
- CD15 A, percentage of immunopositive cells (NB4 cell line): 73.1
- CD15 IA, average intensity of marker expression per cell (NB4 cell line): 73.1 arbitrary units
- CD33 A, percentage of immunopositive cells (NB4 cell line): 87.1
- CD33 IA, average intensity of marker expression per cell (NB4 cell line): 1.6 arbitrary units
- GFAP % (IMR32 cell line; RA 1.0 μM): 94.4%
- GFAP intensity (IMR32 cell line; RA 1.0 μM): 18.4
- NF % (IMR32 cell line; RA 1.0 μM): 96.4%
- NF intensity (IMR32 cell line; RA 1.0 μM): 14.2
- GFAP % (IMR32 cell line; RA 2.5 μM): 90.5%
- GFAP intensity (IMR32 cell line; RA 2.5 μM): 6.1
- NF % (IMR32 cell line; RA 2.5 μM): 97.2%
- NF intensity (IMR32 cell line; RA 2.5 μM): 11.9
- GFAP % (IMR32 cell line; RA 5.0 μM): 87.5%
- GFAP intensity (IMR32 cell line; RA 5.0 μM): 5.2
- NF % (IMR32 cell line; RA 5.0 μM): 95.5%
- NF intensity (IMR32 cell line; RA 5.0 μM): 8.4
- GFAP % (IMR32 cell line; RA 10.0 μM): 83.1%
- GFAP intensity (IMR32 cell line; RA 10.0 μM): 4.0
- NF % (IMR32 cell line; RA 10.0 μM): 92.0%
- NF intensity (IMR32 cell line; RA 10.0 μM): 7.9

Structure (SMILES): N[C@@H](Cc1ccc(N(CCCl)CCCl)cc1)C(=O)O [Melphalan]
- IC50 (DA-3 cell line; DA-3, in presence of β-Car^OX 5 μM): 40 µM
- IC50 (DA-3 cell line; DA-3, in presence of β-Car^OX 7.5 μM): 44 µM
- IC50 (DA-3 cell line; DA-3, in presence of β-Car^OX 10 μM): 6.6 µM
- IC50 (DA-3 cell line; DA-3, in presence of β-Car^OX 20 μM): 6.8 µM
- IC50 (DA-3 cell line; DA-3, β-Car^OX 0 μM): 100 µM
